Results reported in ChEMBL document CHEMBL5357068, “Discovery of Novel TLR7 Agonists as Systemic Agent for Combination With aPD1 for Use in Immuno-oncology” (ACS Med Chem Lett, 2024).

Key:
[1] = Metabolic stability in mouse liver microsomes assessed as compound remaining; format: ADME, Microsome
[2] = AUClast in Balb/c mouse at […], iv measured after 2 hrs by LC-MS analysis; format: ADME, organism-based; parameters: time 2 hrs, dose 0.15 mg/kg, route iv; settings: in vivo
[3] = Protein binding in human plasma assessed as free fraction; format: ADME, cell-free
[4] = molecular target: T1, Toll-like receptor 9 (Homo sapiens) (UniProt Q9NR96); test: Agonist activity at human TLR9
T1 sequence (whole entry): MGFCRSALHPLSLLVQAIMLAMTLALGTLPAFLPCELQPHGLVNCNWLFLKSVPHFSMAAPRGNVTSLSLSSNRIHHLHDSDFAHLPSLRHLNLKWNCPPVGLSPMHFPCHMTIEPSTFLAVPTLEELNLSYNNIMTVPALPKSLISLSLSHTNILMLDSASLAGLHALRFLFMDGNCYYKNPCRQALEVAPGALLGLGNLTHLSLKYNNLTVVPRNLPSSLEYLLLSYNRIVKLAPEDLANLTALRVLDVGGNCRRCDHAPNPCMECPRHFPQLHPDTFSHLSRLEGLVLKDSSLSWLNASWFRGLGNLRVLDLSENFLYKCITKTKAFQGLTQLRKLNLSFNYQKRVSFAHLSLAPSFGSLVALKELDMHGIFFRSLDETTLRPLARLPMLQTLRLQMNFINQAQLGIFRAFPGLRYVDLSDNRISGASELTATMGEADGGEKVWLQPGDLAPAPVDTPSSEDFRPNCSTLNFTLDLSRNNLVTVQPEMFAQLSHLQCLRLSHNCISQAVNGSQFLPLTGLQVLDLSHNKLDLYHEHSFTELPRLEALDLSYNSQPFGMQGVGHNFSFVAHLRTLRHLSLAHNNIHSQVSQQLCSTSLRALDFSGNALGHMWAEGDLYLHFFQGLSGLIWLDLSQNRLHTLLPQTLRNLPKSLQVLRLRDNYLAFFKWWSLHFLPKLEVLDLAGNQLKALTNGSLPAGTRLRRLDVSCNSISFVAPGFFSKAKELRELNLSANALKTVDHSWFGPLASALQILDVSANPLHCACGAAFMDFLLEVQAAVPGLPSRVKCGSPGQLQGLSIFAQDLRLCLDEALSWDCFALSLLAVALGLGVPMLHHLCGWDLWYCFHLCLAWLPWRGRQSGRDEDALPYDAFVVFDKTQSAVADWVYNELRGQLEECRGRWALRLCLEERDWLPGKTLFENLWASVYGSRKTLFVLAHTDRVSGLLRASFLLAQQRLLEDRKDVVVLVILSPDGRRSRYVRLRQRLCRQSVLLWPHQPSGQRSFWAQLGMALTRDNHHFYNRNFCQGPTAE

[5] = Protein binding in cynomolgus monkey plasma assessed as free fraction; format: ADME, cell-free, Macaca fascicularis
[6] = Drug concentration in Balb/c mouse at 0.5 mg/kg, iv measured after 5 min by LC-MS analysis; format: ADME, organism-based; settings: in vivo, read-out: Drug uptake
[7] = Metabolic stability in mouse liver microsomes assessed as half-life; format: ADME, Microsome
[8] = Permeability of compound at pH 7.4 by PAMPA; format: ADME; settings: read-out: permeability
[9] = Metabolic stability in human liver microsomes assessed as half-life; format: ADME, Microsome
[10] = test system: THP-1; test: Cytotoxicity against human THP-1 cells; format: toxicity, cell-based
[11] = Protein binding in mouse plasma assessed as free fraction; format: ADME, cell-free
[12] = test system: Blood; test: Induction of IFIT1 secretion in human whole blood; format: functional, tissue-based
[13] = Metabolic stability in human liver microsomes assessed as compound remaining; format: ADME, Microsome
[14] = test system: Blood; test: Induction of IFIT1 secretion in mouse whole blood; format: functional, tissue-based
[15] = molecular target: T2, Nuclear receptor subfamily 1 group I member 2 (Homo sapiens, UniProt O75469); test: Transactivation of PXR (unknown origin)
T2 sequence (O75469 whole entry): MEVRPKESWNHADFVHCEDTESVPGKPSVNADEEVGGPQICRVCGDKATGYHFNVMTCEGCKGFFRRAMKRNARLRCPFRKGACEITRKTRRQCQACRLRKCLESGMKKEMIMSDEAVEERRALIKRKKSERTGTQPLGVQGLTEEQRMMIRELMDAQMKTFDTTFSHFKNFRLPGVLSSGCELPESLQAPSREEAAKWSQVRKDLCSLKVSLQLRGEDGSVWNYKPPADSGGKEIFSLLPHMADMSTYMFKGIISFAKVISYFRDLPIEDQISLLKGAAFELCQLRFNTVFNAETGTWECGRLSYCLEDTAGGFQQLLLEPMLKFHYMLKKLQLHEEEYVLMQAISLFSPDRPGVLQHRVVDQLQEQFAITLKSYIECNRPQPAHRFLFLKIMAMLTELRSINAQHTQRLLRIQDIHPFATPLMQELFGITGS

[16] = test system: CT26; test: Cytotoxicity against mouse CT26 cells; format: toxicity, cell-based
[17] = Permeability of compound across basolateral to apical side in human Caco-2 cells; format: ADME, cell-based; settings: read-out: permeability
[18] = test system: Mus musculus; test: Induction of IFN-alpha production in iv dosed Balb/c mouse serum measured after 6 hrs by ELISA analysis; format: functional, organism-based; settings: dose lower […], dose upper 0.5 mg/kg
[19] = test system: Blood; test: Induction of TNF-alpha secretion in human whole blood; format: functional, tissue-based
[20] = Drug concentration in Balb/c mouse at […], iv measured after 5 min by LC-MS analysis; format: ADME, organism-based; settings: in vivo, dose 0.15 mg/kg, read-out: Drug uptake

- Stability [1]: 81%
- AUC(0-t) at 2 h [2]: 0.075 µM·h
- fraction unbound [3]: 0.5
- EC [4]: > 5 µM
- fraction unbound [5]: 0.31
- concentration at 5 min [6]: 139 nM
- half-life [7]: 1.42 h
- Papp [8]: 1.58 ×10⁻⁶ cm/s
- half-life [9]: 0.717 h
- fraction unbound [11]: 0.41
- EC50 [12]: 0.1 nM
- Stability [13]: 75%
- EC50 [14]: 0.19 nM
- EC [15]: > 50 nM
- Papp B→A [17]: 10.9 ×10⁻⁶ cm/s
- EC50 [19]: 631 nM
- concentration at 5 min [20]: 85 nM
SMILES: CCC[C@@H](CCO)Nc1nc(N)nc2cnn(Cc3ccc(CNC4CCOCC4)cc3OC)c12
- EC [10]: > 25 µM
- EC [16]: > 25 µM
- Activity [18]: Dose-Dependent Effect
